Laboratory results published in ChEMBL document CHEMBL4507273 (2021).

Tests used:
[1] = tested on: Mast/stem cell growth factor receptor Kit (Homo sapiens), P10721 [A829P]; settings: Compound concentration 1000.0 nM
[2] = target: Serine/threonine-protein kinase Nek6 (Homo sapiens) (UniProt Q9HC98); settings: Compound concentration 1000.0 nM
[3] = target: Calcium/calmodulin-dependent protein kinase type II subunit gamma (Homo sapiens) (UniProt Q13555); settings: Compound concentration 1000.0 nM
[4] = target: Cyclin-dependent kinase 15 (Homo sapiens) (UniProt Q96Q40); settings: Compound concentration 1000.0 nM
[5] = tested on: Phosphatidylinositol 4,5-bisphosphate 3-kinase catalytic subunit alpha isoform (Homo sapiens), P42336 [H1047Y]; settings: Compound concentration 1000.0 nM
[6] = target: Mitogen-activated protein kinase 6 (Homo sapiens) (UniProt Q16659); settings: Compound concentration 1000.0 nM
[7] = target: Dual specificity testis-specific protein kinase 1 (Homo sapiens) (UniProt Q15569); settings: Compound concentration 1000.0 nM
[8] = target: Inhibitor of nuclear factor kappa-B kinase subunit epsilon (Homo sapiens) (UniProt Q14164); settings: Compound concentration 1000.0 nM
[9] = target: Histamine H3 receptor (Homo sapiens) (UniProt Q9Y5N1); settings: Compound concentration 10.0 uM
[10] = target: Membrane-associated tyrosine- and threonine-specific cdc2-inhibitory kinase (Homo sapiens) (UniProt Q99640); settings: Compound concentration 1000.0 nM
[11] = target: Inhibitor of nuclear factor kappa-B kinase subunit alpha (Homo sapiens) (UniProt O15111); settings: Compound concentration 1000.0 nM
[12] = target: Mitotic checkpoint serine/threonine-protein kinase BUB1 (Homo sapiens) (UniProt O43683); settings: Compound concentration 1000.0 nM
[13] = target: Phosphatidylinositol 3-kinase C2 domain-containing subunit gamma (Homo sapiens) (UniProt O75747); settings: Compound concentration 1000.0 nM
[14] = target: Misshapen-like kinase 1 (Homo sapiens) (UniProt Q8N4C8); settings: Compound concentration 1000.0 nM
[15] = target: Son of sevenless homolog 2 (Homo sapiens, UniProt Q07890, G12C)
[16] = target: NT-3 growth factor receptor (Homo sapiens) (UniProt Q16288); settings: Compound concentration 1000.0 nM
[17] = target: Serine/threonine-protein kinase TNNI3K (Homo sapiens) (UniProt Q59H18); settings: Compound concentration 1000.0 nM
[18] = target: G protein-coupled receptor kinase 4 (Homo sapiens) (UniProt P32298); settings: Compound concentration 1000.0 nM
[19] = target: Casein kinase I isoform gamma-1 (Homo sapiens) (UniProt Q9HCP0); settings: Compound concentration 1000.0 nM
[20] = target: Serine/threonine-protein kinase MRCK alpha (Homo sapiens) (UniProt Q5VT25); settings: Compound concentration 1000.0 nM
[21] = target: T1, Muscarinic acetylcholine receptor M1 (Homo sapiens, UniProt P11229); assay: GPCRScan assay: inhibition of M1; parameters: radioligand conc. used [nm] 0.3 – 1.2, parental cells stable CHO
T1 sequence (P11229 whole entry): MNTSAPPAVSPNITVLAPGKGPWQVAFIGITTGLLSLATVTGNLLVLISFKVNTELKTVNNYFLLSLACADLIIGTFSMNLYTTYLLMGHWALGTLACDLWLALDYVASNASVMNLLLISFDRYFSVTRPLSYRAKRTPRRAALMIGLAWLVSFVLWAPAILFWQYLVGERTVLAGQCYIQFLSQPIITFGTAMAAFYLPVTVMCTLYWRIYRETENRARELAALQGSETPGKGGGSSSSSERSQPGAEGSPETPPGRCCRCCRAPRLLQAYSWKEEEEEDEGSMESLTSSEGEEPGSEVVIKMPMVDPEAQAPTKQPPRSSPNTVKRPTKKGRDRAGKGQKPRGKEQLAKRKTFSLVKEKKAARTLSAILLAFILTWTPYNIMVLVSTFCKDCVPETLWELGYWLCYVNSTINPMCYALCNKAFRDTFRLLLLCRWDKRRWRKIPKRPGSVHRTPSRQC

[22] = target: Casein kinase I isoform gamma-3 (Homo sapiens) (UniProt Q9Y6M4); settings: Compound concentration 1000.0 nM
[23] = target: T2, 5-hydroxytryptamine receptor 1A (Homo sapiens, UniProt P08908); assay: GPCRScan assay: inhibition of 5-HT1A; parameters: radioligand conc. used [nm] 0.5 – 1.0, parental cells stable CHO
T2 sequence (P08908 whole entry): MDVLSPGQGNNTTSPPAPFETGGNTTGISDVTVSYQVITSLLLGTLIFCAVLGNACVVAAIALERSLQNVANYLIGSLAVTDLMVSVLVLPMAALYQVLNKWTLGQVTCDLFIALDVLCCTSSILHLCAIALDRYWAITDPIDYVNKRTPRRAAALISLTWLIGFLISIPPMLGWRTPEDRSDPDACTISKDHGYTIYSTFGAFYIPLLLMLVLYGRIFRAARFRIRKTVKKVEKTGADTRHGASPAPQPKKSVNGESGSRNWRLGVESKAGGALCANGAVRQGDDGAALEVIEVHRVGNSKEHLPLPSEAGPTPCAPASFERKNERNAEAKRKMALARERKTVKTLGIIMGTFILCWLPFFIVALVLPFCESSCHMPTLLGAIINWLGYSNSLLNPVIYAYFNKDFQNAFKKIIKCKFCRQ

[24] = target: Mitogen-activated protein kinase 8 (Homo sapiens) (UniProt P45983); settings: Compound concentration 1000.0 nM
[25] = target: Mitogen-activated protein kinase kinase kinase 2 (Homo sapiens) (UniProt Q9Y2U5); settings: Compound concentration 1000.0 nM
[26] = target: Dual specificity protein kinase CLK4 (Homo sapiens) (UniProt Q9HAZ1); settings: Compound concentration 1000.0 nM
[27] = target: Leucine-rich repeat serine/threonine-protein kinase 2 (Homo sapiens) (UniProt Q5S007); settings: Compound concentration 1000.0 nM
[28] = tested on: Phosphatidylinositol 4,5-bisphosphate 3-kinase catalytic subunit alpha isoform (Homo sapiens), P42336 [H1047L]; settings: Compound concentration 1000.0 nM
[29] = target: GABA-A receptor; anion channel (Rattus norvegicus) (UniProt O09028+P15431+P18506+P18508+P19969+P20236+P23574+P23576+P28471+P28473+P30191+P62813+P63079+P63138+Q91ZM7+Q9ES14); settings: Compound concentration 10.0 uM
[30] = target: Mitogen-activated protein kinase kinase kinase kinase 4 (Homo sapiens) (UniProt O95819); settings: Compound concentration 1000.0 nM
Mitogen-activated protein kinase kinase kinase kinase 4 (Homo sapiens), sequence (O95819 2-1239 limits assumed): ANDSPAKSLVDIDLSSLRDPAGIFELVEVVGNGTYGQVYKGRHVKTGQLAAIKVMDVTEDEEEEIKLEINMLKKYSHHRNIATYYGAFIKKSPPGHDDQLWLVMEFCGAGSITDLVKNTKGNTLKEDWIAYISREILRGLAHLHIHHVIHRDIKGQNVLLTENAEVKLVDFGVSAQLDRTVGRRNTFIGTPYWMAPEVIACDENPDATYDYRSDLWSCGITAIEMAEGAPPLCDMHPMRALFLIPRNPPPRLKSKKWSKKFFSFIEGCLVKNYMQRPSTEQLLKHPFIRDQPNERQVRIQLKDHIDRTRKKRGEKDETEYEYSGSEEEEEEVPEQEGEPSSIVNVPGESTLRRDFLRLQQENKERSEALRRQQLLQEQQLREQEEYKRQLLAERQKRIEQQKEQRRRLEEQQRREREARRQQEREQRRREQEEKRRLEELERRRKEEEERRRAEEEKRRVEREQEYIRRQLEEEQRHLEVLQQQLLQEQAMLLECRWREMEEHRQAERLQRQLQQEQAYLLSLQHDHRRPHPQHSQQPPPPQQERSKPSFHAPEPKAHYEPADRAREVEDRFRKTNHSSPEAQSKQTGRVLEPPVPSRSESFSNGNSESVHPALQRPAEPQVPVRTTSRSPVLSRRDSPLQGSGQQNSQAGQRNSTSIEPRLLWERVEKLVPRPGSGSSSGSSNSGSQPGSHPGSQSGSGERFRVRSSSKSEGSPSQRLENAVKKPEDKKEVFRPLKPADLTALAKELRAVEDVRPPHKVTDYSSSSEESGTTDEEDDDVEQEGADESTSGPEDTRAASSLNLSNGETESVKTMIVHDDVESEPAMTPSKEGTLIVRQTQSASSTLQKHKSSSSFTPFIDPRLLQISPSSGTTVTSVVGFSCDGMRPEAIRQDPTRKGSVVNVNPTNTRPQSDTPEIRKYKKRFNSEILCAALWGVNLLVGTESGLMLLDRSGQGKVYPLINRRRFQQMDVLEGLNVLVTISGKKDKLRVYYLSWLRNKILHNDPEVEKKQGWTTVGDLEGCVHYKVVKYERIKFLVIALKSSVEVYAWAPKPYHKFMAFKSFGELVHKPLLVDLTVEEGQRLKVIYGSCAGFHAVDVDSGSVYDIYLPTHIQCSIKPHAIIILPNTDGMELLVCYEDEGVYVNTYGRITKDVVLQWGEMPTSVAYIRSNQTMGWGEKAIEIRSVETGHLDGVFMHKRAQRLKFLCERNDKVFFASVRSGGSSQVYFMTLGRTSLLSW

Casein kinase I isoform gamma-1 (Homo sapiens), sequence (Q9HCP0 whole entry, looked up, canonical isoform): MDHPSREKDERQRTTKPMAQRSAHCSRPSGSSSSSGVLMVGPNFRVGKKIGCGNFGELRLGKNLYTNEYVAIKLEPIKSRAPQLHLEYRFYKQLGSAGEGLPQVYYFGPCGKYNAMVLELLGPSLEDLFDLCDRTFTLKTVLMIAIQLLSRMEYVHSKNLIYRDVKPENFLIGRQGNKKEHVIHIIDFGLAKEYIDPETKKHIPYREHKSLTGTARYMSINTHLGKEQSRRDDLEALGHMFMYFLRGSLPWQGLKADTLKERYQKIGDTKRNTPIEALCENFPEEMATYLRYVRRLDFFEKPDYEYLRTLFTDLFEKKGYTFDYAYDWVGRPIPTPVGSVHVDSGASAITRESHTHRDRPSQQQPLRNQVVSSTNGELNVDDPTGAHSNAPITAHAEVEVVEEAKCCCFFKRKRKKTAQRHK
Mitogen-activated protein kinase 6 (Homo sapiens), sequence (Q16659 whole entry): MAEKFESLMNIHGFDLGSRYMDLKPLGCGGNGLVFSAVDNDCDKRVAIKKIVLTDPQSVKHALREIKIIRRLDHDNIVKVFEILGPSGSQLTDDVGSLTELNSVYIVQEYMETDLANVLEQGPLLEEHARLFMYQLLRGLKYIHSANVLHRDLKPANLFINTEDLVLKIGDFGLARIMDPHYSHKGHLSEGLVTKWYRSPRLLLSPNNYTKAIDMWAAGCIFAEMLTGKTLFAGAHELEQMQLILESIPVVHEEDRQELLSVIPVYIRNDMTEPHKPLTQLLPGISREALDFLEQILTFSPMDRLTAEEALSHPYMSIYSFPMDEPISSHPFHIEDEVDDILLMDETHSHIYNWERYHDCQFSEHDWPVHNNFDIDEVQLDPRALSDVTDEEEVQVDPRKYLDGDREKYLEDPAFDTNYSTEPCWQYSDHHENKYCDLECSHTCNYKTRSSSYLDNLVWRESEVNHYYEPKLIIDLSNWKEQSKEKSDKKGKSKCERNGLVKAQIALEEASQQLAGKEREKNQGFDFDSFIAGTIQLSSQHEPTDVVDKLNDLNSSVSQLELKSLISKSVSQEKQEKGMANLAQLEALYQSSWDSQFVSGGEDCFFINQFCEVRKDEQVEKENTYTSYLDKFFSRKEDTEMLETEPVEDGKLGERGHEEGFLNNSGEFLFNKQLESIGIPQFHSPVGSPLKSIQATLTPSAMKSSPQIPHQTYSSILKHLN
Calcium/calmodulin-dependent protein kinase type II subunit gamma (Homo sapiens), sequence (Q13555 whole entry): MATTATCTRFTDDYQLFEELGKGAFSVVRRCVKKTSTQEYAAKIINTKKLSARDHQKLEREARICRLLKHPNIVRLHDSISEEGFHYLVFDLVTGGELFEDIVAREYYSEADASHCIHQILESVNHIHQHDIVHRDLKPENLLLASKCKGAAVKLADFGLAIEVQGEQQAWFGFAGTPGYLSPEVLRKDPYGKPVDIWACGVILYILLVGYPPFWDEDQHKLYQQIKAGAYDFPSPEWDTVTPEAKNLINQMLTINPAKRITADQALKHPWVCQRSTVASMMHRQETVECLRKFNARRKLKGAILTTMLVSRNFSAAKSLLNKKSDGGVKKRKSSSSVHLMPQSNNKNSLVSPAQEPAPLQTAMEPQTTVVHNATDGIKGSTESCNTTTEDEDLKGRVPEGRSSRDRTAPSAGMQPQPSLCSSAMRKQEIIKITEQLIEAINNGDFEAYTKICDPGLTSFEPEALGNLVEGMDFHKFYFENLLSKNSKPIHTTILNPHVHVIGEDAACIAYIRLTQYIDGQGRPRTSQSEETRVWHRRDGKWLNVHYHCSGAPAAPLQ
Dual specificity protein kinase CLK4 (Homo sapiens), sequence (Q9HAZ1 whole entry, looked up): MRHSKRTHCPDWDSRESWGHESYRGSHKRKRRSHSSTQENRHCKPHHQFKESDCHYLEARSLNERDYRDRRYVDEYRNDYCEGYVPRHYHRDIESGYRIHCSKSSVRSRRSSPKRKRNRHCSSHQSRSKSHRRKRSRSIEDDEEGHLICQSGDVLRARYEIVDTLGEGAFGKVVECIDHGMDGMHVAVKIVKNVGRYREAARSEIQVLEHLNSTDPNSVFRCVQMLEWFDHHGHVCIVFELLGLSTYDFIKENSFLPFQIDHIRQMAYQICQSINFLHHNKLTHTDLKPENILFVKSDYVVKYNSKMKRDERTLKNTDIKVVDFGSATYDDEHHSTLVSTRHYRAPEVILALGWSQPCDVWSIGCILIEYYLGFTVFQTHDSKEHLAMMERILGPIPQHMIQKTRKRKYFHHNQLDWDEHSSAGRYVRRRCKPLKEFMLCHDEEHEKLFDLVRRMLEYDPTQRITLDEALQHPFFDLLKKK
Casein kinase I isoform gamma-3 (Homo sapiens), sequence (Q9Y6M4 whole entry, looked up, canonical isoform): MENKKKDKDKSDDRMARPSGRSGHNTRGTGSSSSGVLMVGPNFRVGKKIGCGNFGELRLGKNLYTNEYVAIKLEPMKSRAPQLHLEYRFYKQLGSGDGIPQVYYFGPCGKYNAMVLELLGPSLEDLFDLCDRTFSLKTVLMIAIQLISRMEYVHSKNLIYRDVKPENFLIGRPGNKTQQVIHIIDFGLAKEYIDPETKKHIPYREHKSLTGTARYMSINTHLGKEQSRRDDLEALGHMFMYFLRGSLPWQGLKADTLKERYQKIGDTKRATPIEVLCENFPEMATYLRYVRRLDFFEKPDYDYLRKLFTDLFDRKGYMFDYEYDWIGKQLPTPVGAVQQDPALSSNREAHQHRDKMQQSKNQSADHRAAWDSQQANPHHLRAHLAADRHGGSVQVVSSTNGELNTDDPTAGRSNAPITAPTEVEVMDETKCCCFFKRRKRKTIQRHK
Phosphatidylinositol 4,5-bisphosphate 3-kinase catalytic subunit alpha isoform (Homo sapiens), P42336 [H1047L], sequence (P42336 whole entry H1047L, canonical isoform): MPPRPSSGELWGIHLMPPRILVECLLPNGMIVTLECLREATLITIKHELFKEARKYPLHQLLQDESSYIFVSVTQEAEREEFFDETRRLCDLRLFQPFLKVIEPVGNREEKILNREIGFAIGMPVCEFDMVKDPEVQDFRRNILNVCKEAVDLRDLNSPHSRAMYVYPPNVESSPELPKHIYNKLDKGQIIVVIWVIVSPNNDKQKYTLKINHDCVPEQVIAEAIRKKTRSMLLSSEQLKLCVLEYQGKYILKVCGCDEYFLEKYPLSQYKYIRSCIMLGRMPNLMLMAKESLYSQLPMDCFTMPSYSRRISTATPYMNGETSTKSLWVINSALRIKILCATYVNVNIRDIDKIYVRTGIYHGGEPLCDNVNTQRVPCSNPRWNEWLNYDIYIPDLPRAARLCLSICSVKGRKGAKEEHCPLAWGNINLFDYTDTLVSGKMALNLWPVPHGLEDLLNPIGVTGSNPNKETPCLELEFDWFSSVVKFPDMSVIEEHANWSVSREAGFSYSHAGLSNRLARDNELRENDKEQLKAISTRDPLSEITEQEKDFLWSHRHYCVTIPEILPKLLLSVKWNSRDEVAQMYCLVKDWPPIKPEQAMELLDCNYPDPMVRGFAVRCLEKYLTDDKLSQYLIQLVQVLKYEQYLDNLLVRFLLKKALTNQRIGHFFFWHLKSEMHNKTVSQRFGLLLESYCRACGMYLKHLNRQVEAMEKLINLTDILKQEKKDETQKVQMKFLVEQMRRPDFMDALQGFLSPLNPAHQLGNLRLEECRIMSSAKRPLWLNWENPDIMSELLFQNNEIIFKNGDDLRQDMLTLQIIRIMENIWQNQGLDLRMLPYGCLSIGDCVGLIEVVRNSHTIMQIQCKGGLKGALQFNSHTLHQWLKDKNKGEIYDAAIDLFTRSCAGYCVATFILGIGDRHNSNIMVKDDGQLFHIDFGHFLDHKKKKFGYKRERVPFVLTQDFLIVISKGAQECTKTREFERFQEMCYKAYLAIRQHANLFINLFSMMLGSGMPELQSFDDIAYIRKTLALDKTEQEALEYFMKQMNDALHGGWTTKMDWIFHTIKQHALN

SMILES: CNCc1ccccc1-c1csc([C@H](C)Nc2nc(C)nc3cc(OC)c(OC)cc23)c1 [BAY-294]
- residual activity [1]: 100%
- residual activity [2]: 100%
- residual activity [3]: 90%
- residual activity [4]: 100%
- residual activity [5]: 100%
- residual activity [6]: 100%
- residual activity [7]: 100%
- residual activity [8]: 85%
- inhibition [9]: 24.6%
- residual activity [10]: 100%
- residual activity [11]: 90%
- residual activity [12]: 100%
- residual activity [13]: 100%
- residual activity [14]: 88%
- IC50 [15]: > 20000 nM (not active)
- residual activity [16]: 100%
- residual activity [17]: 100%
- residual activity [18]: 97%
- residual activity [19]: 92%
- residual activity [20]: 92%
- Ki ([21]; read-out: Ki): 314 nM
- Ki ([21]; read-out: pKi (converted)): 224 nM
- residual activity [22]: 93%
- Ki ([23]; read-out: Ki): 391 nM
- residual activity [24]: 81%
- residual activity [25]: 100%
- residual activity [26]: 100%
- residual activity [27]: 100%
- residual activity [28]: 88%
- inhibition [29]: 9.67%
- residual activity [30]: 97%

SMILES: CNCc1ccccc1-c1csc([C@@H](C)Nc2nc(C)nc3cc(OC)c(OC)cc23)c1 [BAY-293]
- residual activity [1]: 87%
- residual activity [2]: 96%
- residual activity [3]: 100%
- residual activity [4]: 100%
- residual activity [5]: 100%
- residual activity [6]: 100%
- residual activity [7]: 83%
- residual activity [8]: 71%
- inhibition [9]: 26.7%
- residual activity [10]: 93%
- residual activity [11]: 100%
- residual activity [12]: 100%
- residual activity [13]: 59%
- residual activity [14]: 57%
- IC50 [15]: > 20000 nM (not active)
- residual activity [16]: 88%
- residual activity [17]: 100%
- residual activity [18]: 80%
- residual activity [19]: 88%
- residual activity [20]: 67%
- Ki ([21]; read-out: Ki): 238 nM
- Ki ([21]; read-out: pKi (converted)): 209 nM
- residual activity [22]: 99%
- Ki ([23]; read-out: Ki): 3630 nM
- Ki ([23]; read-out: pKi (converted)): 3350 nM
- residual activity [24]: 66%
- residual activity [25]: 87%
- residual activity [26]: 100%
- residual activity [27]: 100%
- residual activity [28]: 95%
- inhibition [29]: 12.3%
- residual activity [30]: 100%
